# Data from US20250340510A1, “Substituted Phenylbenzenesulfonamide Derivatives and Uses Thereof” (Nine Square Therapeutics Corporation, priority 2022, published 2025).
# pEC50: −log10 of the molar value.
# Target: TRPML1 (Homo sapiens, UniProt Q9GZU1)
# Experiment: Calcium flux in HEK293 overexpressing TRPML1 plasma membrane variant (FLIPR, Calcium 6 dye)
# Assay type: cell-based
# Settings: HEK293/TRPML1-PM clone A5 cells; 4-parameter logistic fit; read-out: TRPML1 calcium flux (FLIPR) dose response: EC50
# Excerpt: Example B1. Calcium Flux in HEK293 Overexpressing TRPML1 Plasma Membrane Variant—Calcium 6 Dye
# Cells: HEK293/TRPML1-PM clone A5, clonal cell line containing mutant TRPML1 (both N- and C-terminal dileucine targeting motifs deleted) that localizes to the plasma membrane
# Plates: Perkin Elmer Viewplate cat. #6007460, black optically clear, tissue culture treated 384-well plate
# Calcium dye: Molecular Devices FLIPR Calcium 6 Assay Kit, cat. #R8190 or Fluo-4 Direct from Thermo Fisher, cat. #F10471
# Tips: Molecular Devices 384-well FLIPR Tetra black tips, cat. #9000-0764 Example B1.2 Method
# HEK293/TRPML1-PM clone A5 cells were trypsinized from flasks, counted, then diluted in media to 15,000 cells per 25 μL, and seeded into a black, 384-well viewplate, and cultured overnight.
# One vial of calcium 6 dye was diluted with 10 mL of assay buffer (HBSS+20 mM HEPES pH 7.4) and 25 μL of the dilution was added per well to the cells.
# After incubating for 2 hours at 37° C., the plate was moved to the FLIPR in the read position.
# The compounds were diluted in EMEM with 0.125% FBS to 5× concentration and loaded in a 384-well plate according to the desired plate map for the assay, including DMSO alone and carbachol controls, then the plate was moved to the FLIPR in the source 2 position.
# A box of tips was placed in the source 1 position within the FLIPR to complete the assay set up.
# Once the run was started, an initial baseline fluorescent measurement was performed for 10 seconds (470-495 nm excitation and 515-575 nm emission) prior to adding the compounds.
# 12.5 μL of 5× test compound, DMSO alone, or carbachol were added via the FLIPR and real-time fluorescence measurements were performed for an additional 170 seconds with 1 read per second.
# The data was normalized to baseline by calculating maximum fluorescence minus minimum fluorescence and plotted as response (fold) over the baseline versus log ([…] concentration). The EC50 was determined using a 4-parameter logistic curve fit in Graphpad Prism 9.
# TRPML1, sequence (Q9GZU1 17-572 limits assumed): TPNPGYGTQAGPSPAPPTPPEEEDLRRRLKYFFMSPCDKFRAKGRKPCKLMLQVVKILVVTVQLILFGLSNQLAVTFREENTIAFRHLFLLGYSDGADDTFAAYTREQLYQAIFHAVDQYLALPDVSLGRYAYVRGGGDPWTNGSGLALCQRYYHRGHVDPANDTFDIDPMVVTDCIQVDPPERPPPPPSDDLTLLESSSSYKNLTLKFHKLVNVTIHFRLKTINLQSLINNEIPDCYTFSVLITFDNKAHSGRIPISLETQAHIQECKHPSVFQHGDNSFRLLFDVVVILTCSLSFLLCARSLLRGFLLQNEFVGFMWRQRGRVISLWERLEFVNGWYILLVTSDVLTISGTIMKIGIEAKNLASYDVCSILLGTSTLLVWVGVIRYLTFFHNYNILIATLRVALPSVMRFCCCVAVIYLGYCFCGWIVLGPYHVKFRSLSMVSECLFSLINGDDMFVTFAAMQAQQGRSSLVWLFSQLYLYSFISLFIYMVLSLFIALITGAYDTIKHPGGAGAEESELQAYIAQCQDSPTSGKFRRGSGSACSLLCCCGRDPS
row,pEC50,Compound
1,5.34,"CN(Cc1cccnc1)c1ccccc1NS(=O)(=O)c1ccc(S(=O)(=O)N(C)C)cc1 [Compound 57, N1,N1-dimethyl-N4-(2-(methyl(pyridin-3-ylmethyl)amino)phenyl)benzene-1,4-disulfonamide]"
2,5.49,"COCCCN(C)c1ccccc1NS(=O)(=O)c1ccc(S(=O)(=O)N(C)C)cc1 [Compound 34, N1-(2-((3-methoxypropyl)(methyl)amino)phenyl)-N4,N4-dimethylbenzene-1,4-disulfonamide]"
3,< 5.00,"CN(Cc1cncn1C)c1ccccc1NS(=O)(=O)c1ccc(S(=O)(=O)N(C)C)cc1 [Compound 56, N1,N1-dimethyl-N4-(2-(methyl((1-methyl-1H-imidazol-5-yl)methyl)amino)phenyl)benzene-1,4-disulfonamide]"
4,5.69,"CN(c1ccccc1NS(=O)(=O)c1ccc(S(=O)(=O)N(C)C)cc1)C1CCOCC1 [Compound 19, N1,N1-dimethyl-N4-(2-(methyl(tetrahydro-2H-pyran-4-yl)amino)phenyl)benzene-1,4-disulfonamide]"
5,5.42,"CCN(CC)c1ccccc1NS(=O)(=O)c1ccc(S(=O)(=O)N(C)C)cc1 [Compound 82, N1-(2-(diethylamino)phenyl)-N4,N4-dimethylbenzene-1,4-disulfonamide]"
6,6.38,"COCC1(C)CCC(CN(C)c2ccccc2NS(=O)(=O)c2ccc(S(=O)(=O)N(C)C)cc2)CC1 (centres unmarked) [Compound 39, N1-(2-(((4-(methoxymethyl)-4-methylcyclohexyl)methyl)(methyl)amino)phenyl)-N4,N4-dimethylbenzene-1,4-disulfonamide]"
7,5.24,"CN(c1cccc(Cl)c1NS(=O)(=O)c1ccc(S(=O)(=O)N(C)C)cc1)C1CCCCC1 [Compound 52, N1-(2-chloro-6-(cyclohexyl(methyl)amino)phenyl)-N4,N4-dimethylbenzene-1,4-disulfonamide]"
8,5.13,"CN(c1cccc(C(F)(F)F)c1NS(=O)(=O)c1ccc(S(=O)(=O)N(C)C)cc1)C1CCCCC1 [Compound 92, N1-(2-(cyclohexyl(methyl)amino)-6-(trifluoromethyl)phenyl)-N4,N4-dimethylbenzene-1,4-disulfonamide]"
9,6.09,"COCC1(C)CCC(N(C)c2ccccc2NS(=O)(=O)c2ccc(S(=O)(=O)N(C)C)cc2)CC1 (centres unmarked) [Compound 42, N1-(2-((4-(methoxymethyl)-4-methylcyclohexyl)(methyl)amino)phenyl)-N4,N4-dimethylbenzene-1,4-disulfonamide]"
10,< 5.00,"CN(CC1COC1)c1ccccc1NS(=O)(=O)c1ccc(S(=O)(=O)N(C)C)cc1 [Compound 47, N1,N1-dimethyl-N4-(2-(methyl(oxetan-3-ylmethyl)amino)phenyl)benzene-1,4-disulfonamide]"
11,5.56,"COCCCCN(C)c1ccccc1NS(=O)(=O)c1ccc(S(=O)(=O)N(C)C)cc1 [Compound 33, N1-(2-((4-methoxybutyl)(methyl)amino)phenyl)-N4,N4-dimethylbenzene-1,4-disulfonamide]"
12,5.85,"CN(CCc1nccs1)c1ccccc1NS(=O)(=O)c1ccc(S(=O)(=O)N(C)C)cc1 [Compound 90, N1,N1-dimethyl-N4-(2-(methyl(2-(thiazol-2-yl)ethyl)amino)phenyl)benzene-1,4-disulfonamide]"
13,5.05,"CC(C)n1cnc(CN(C)c2ccccc2NS(=O)(=O)c2ccc(S(=O)(=O)N(C)C)cc2)c1 [Compound 31, N1-(2-(((1-isopropyl-1H-imidazol-4-yl)methyl)(methyl)amino)phenyl)-N4,N4-dimethylbenzene-1,4-disulfonamide]"
14,5.43,"CN(Cc1ccncc1)c1ccccc1NS(=O)(=O)c1ccc(S(=O)(=O)N(C)C)cc1 [Compound 8, N1,N1-dimethyl-N4-(2-(methyl(pyridin-4-ylmethyl)amino)phenyl) benzene-1,4-disulfonamide]"
15,5.61,"CN(Cc1cnn(C2CC2)c1)c1ccccc1NS(=O)(=O)c1ccc(S(=O)(=O)N(C)C)cc1 [Compound 5, N1-(2-(((1-cyclopropyl-1H-pyrazol-4-yl)methyl)(methyl)amino)phenyl)-N4,N4-dimethylbenzene-1,4-disulfonamide]"
16,5.52,"CN(c1cc(Cl)ccc1NS(=O)(=O)c1ccc(S(=O)(=O)N(C)C)cc1)C1CCCCC1 [Compound 2, N1-(4-chloro-2-(cyclohexyl(methyl)amino)phenyl)-N4,N4-dimethylbenzene-1,4-disulfonamide]"

row,pEC50,Compound
1,5.60,"CN(Cc1ccn(C2CC2)n1)c1ccccc1NS(=O)(=O)c1ccc(S(=O)(=O)N(C)C)cc1 [Compound 94, N1-(2-(((1-cyclopropyl-1H-pyrazol-3-yl)methyl)(methyl)amino)phenyl)-N4,N4-dimethylbenzene-1,4-disulfonamide]"
2,6.39,"CN(c1ccccc1NS(=O)(=O)c1ccc(S(=O)(=O)N(C)C)cc1)C1CC(F)(F)C1 [Compound 40, N1-(2-((3,3-difluorocyclobutyl) (methyl)amino)phenyl)-N4,N4-dimethylbenzene-1,4-disulfonamide]"
3,6.12,"CN(c1ccccc1NS(=O)(=O)c1ccc(S(=O)(=O)N(C)C)cc1)C1CCC1 [Compound 37, N1-(2-(cyclobutyl(methyl)amino)phenyl)-N4,N4-dimethylbenzene-1,4-disulfonamide]"
4,5.94,"CN(CC1CCOC(C)(C)C1)c1ccccc1NS(=O)(=O)c1ccc(S(=O)(=O)N(C)C)cc1 (centres unmarked) [Compound 100, N1-(2-(((2,2-dimethyltetrahydro-2H-pyran-4-yl)methyl)(methyl)amino)phenyl)-N4,N4-dimethylbenzene-1,4-disulfonamide]"
5,5.59,"CN(Cc1ccccn1)c1ccccc1NS(=O)(=O)c1ccc(S(=O)(=O)N(C)C)cc1 [Compound 46, N1,N1-dimethyl-N4-(2-(methyl(pyridin-2-ylmethyl)amino)phenyl)benzene-1,4-disulfonamide]"
6,5.32,"CN(c1cccc(F)c1NS(=O)(=O)c1ccc(S(=O)(=O)N(C)C)cc1)C1CCCCC1 [Compound 3, N1-(2-(cyclohexyl(methyl)amino)-6-fluorophenyl)-N4,N4-dimethylbenzene-1,4-disulfonamide]"
7,< 5.00,"CN(CCN1CCOCC1)c1ccccc1NS(=O)(=O)c1ccc(S(=O)(=O)N(C)C)cc1 [Compound 15, N1,N1-dimethyl-N4-(2-(methyl(2-morpholinoethyl)amino)phenyl) benzene-1,4-disulfonamide]"
8,6.55,"CN(c1c(NS(=O)(=O)c2ccc(S(=O)(=O)N(C)C)cc2)cccc1C(F)(F)F)C1CCCCC1 [Compound 109, N1-(2-(cyclohexyl(methyl)amino)-3-(trifluoromethyl)phenyl)-N4,N4-dimethylbenzene-1,4-disulfonamide]"
9,5.97,"CN(c1ccc(F)cc1NS(=O)(=O)c1ccc(S(=O)(=O)N(C)C)cc1)C1CCCCC1 [Compound 53, N1-(2-(cyclohexyl(methyl)amino)-5-fluorophenyl)-N4,N4-dimethylbenzene-1,4-disulfonamide]"
10,5.71,"CN(c1ccccc1NS(=O)(=O)c1ccc(S(=O)(=O)N(C)C)cc1)C1CCCCC1(F)F (centres unmarked) [Compound 103, N1-(2-((2,2-difluorocyclohexyl) (methyl)amino)phenyl)-N4,N4-dimethylbenzene-1,4-disulfonamide]"
11,5.99,"CN(c1cc(C(F)(F)F)ccc1NS(=O)(=O)c1ccc(S(=O)(=O)N(C)C)cc1)C1CCCCC1 [Compound 116, N1-(2-(cyclohexyl(methyl)amino)-4-(trifluoromethyl)phenyl)-N4,N4-dimethylbenzene-1,4-disulfonamide]"
12,< 4.52,"CN(Cc1cn2c(n1)CCC2)c1ccccc1NS(=O)(=O)c1ccc(S(=O)(=O)N(C)C)cc1 [Compound 83, N1-(2-(((6,7-dihydro-5H-pyrrolo[1,2-a]imidazol-2-yl)methyl)(methyl)amino)phenyl)-N4,N4-dimethylbenzene-1,4-disulfonamide]"
13,< 5.00,"CN(c1ccccc1)c1ccccc1NS(=O)(=O)c1ccc(S(=O)(=O)N(C)C)cc1 [Compound 27, N1,N1-dimethyl-N4-(2-(methyl(phenyl)amino)phenyl)benzene-1,4-disulfonamide]"
14,5.40,"CN(CCC1CCOCC1)c1ccccc1NS(=O)(=O)c1ccc(S(=O)(=O)N(C)C)cc1 [Compound 114, N1,N1-dimethyl-N4-(2-(methyl(2-(tetrahydro-2H-pyran-4-yl)ethyl)amino)phenyl)benzene-1,4-disulfonamide]"
15,5.52,"CN(Cc1cnsc1)c1ccccc1NS(=O)(=O)c1ccc(S(=O)(=O)N(C)C)cc1 [Compound 101, N1-(2-((isothiazol-4-ylmethyl)(methyl)amino)phenyl)-N4,N4-dimethylbenzene-1,4-disulfonamide]"

row,Compound,pEC50
1,"CN(c1ccccc1NS(=O)(=O)c1ccc(S(=O)(=O)N(C)C)cc1)C1CCNCC1 [Compound 22, N1,N1-dimethyl-N4-(2-(methyl(piperidin-4-yl)amino)phenyl)benzene-1,4-disulfonamide]",< 5.00
